# Assay results from publication PMC4182912 (Journal of medicinal chemistry, 2008).
# What was measured:
# [1] = system: P-glycoprotein (P-gp) efflux pumps; conditions: cited from earlier work
# [2] = molecular target: recombinant hCB1r (Homo sapiens, UniProt P21554); assay type: biochemical
# Chain of recombinant hCB1r (P21554 whole entry): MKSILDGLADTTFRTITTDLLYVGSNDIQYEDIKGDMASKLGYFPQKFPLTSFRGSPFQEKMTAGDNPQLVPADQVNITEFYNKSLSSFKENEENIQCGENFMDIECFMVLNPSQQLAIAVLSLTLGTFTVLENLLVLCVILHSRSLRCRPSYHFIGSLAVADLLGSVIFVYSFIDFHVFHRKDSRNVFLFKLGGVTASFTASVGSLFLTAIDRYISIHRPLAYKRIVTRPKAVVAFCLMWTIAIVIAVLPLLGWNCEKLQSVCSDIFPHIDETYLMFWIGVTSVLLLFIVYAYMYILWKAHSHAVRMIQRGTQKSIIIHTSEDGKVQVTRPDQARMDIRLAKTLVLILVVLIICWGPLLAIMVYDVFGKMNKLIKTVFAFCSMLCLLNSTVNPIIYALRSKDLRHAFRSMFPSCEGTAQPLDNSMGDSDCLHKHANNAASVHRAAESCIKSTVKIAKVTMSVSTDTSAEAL
Structure (SMILES),substrate behavior for P-gp efflux pumps [1],"eudismic ratio (CB1 receptor affinity, (-)- vs (+)-enantiomer) [2]"
"CN=C(NS(=O)(=O)c1ccc(Cl)cc1)N1C[C@H](c2ccccc2)C(c2ccc(Cl)cc2)=N1 [Ligand 3, (4S)-3-(4-chlorophenyl)-N-methyl-N’-[(4-chlorophenyl)sulfonyl]-4-phenyl-4,5-dihydro-1H-pyrazole-1-carboxamidine]",little to no substrate behavior,
"N#Cc1ccc(S(=O)(=O)N=C(N)N2CC(c3ccccc3)C(c3ccc(Cl)cc3)=N2)cc1 (stereo not drawn) [Ligand 12a, 3-(4-Chlorophenyl)-N’-[(4-cyanophenyl)sulfonyl]-4-phenyl-4,5-dihydro-1H-pyrazole-1-carboxamidine]",,about 35
"NC(=NS(=O)(=O)c1ccc(I)cc1)N1CC(c2ccccc2)C(c2ccc(Cl)cc2)=N1 (stereo not drawn) [Ligand 12c, 3-(4-Chlorophenyl)-N’-[(4-iodophenyl)sulfonyl]-4-phenyl-4,5-dihydro-1H-pyrazole-1-carboxamidine]",,~56
